The source of these data is PubChem BioAssay (NCI).

Where “and” joins values, the source holds several entries; their conditions need not be identical. Identical values can stand only once.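 Test compounds were applied to cells in 96-well plates for 48 hours at 5 doses. GI50 is the concentration that inhibits growth by half. TGI is the concentration that stops growth completely.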 Where only a bound is given, the exact number is not on record here.

Some test systems named below: DMS 273 small cell lung; PC-3 prostate; KM20L2 colon; SF-539 CNS; MDA-MB-231 breast; MCF7 breast; HL-60(TB) leukemia; SN12C renal; NCI-H23 lung; OVCAR-5 ovarian.
Test in all cases: NCI tumour cell line growth inhibition, 48 h

For `CC[C@](O)(C(=O)O)c1cc2n(c(=O)c1CO)Cc1cc3ccccc3nc1-2`, the GI50 with DMS 273 small cell lung was 0.0316 µM; in the assay on PC-3 prostate it was 0.113 µM; in the assay on KM20L2 colon it was 0.209 µM; in the assay with SF-539 CNS, less than 0.0025 µM; with MDA-MB-231 breast, 0.969 µM; in the assay on HL-60(TB) leukemia, less than 0.0025 µM. Also, the GI50 in the assay with SN12C renal was 0.00365 µM and < 0.0193 µM; in the assay with NCI-H23 lung it was 0.0058 µM and 0.0215 µM; with OVCAR-5 ovarian it was 0.0691 µM and 0.104 µM. Also, the TGI in the assay with DMS 273 small cell lung was 0.132 µM and 0.0963 µM; in the assay with PC-3 prostate, 5.17 µM; in the assay with KM20L2 colon it was 3.96 µM; in the assay with MDA-MB-231 breast, 6.84 µM; in the assay on MCF7 breast, 3.43 µM; in the assay on HL-60(TB) leukemia, 0.347 µM and 2.5 µM. Besides, the TGI in the assay with SN12C renal was 0.822 µM and 0.121 µM; with OVCAR-5 ovarian, 0.784 µM and 0.501 µM.
With `CCC[CH2][Sn]1([CH2]CCC)[O]C(=O)C[S]1`, the GI50 with DMS 273 small cell lung was 2.11 µM; in the assay with KM20L2 colon, 4.06 µM; in the assay with SF-539 CNS it was 1.64 µM; in the assay on HL-60(TB) leukemia, 1.02 µM; in the assay with SN12C renal, 1.91 µM; in the assay with NCI-H23 lung, 1.28 µM. Besides, the GI50 in the assay with OVCAR-5 ovarian is 2.09 µM. The TGI with DMS 273 small cell lung was 6.07 µM; in the assay with KM20L2 colon, 15.9 µM; in the assay with SF-539 CNS, 3.43 µM; in the assay on HL-60(TB) leukemia it was 4.66 µM; in the assay with SN12C renal, 5.09 µM; in the assay on NCI-H23 lung, 2.64 µM. This molecule also yielded a TGI with OVCAR-5 ovarian of 5.27 µM.
Regarding `C(=C1\CCC/C(=C/c2ccccc2)C1=NNc1ccccc1)/c1ccccc1`, the TGI in the assay on DMS 273 small cell lung, with KM20L2 colon, with SF-539 CNS, with HL-60(TB) leukemia, in the assay on SN12C renal and in the assay with NCI-H23 lung was greater than 100 µM in each case. Also, in the assay on OVCAR-5 ovarian, the TGI was greater than 100 µM.
For `CC(C)C(/C=C/c1ccccc1)=N\NC(=O)N/N=C(/C=C/c1ccccc1)C(C)C`, the TGI in the assay on DMS 273 small cell lung is 55.1 µM; in the assay with KM20L2 colon it was 93.6 µM; in the assay with SF-539 CNS, greater than 100 µM; with HL-60(TB) leukemia it was 45.9 µM; with SN12C renal it was 33.2 µM; with NCI-H23 lung, greater than 100 µM. This molecule yielded a TGI in the assay with OVCAR-5 ovarian greater than 100 µM.
For the molecule `COc1cc2ccc(CC#N)cc2cc1OC`, the TGI in the assay with DMS 273 small cell lung, in the assay with KM20L2 colon, in the assay with SF-539 CNS, in the assay with HL-60(TB) leukemia, in the assay on SN12C renal and with NCI-H23 lung was greater than 100 µM throughout. In the assay with OVCAR-5 ovarian, the TGI was greater than 100 µM.
For `CC(=O)Nc1ccc(-c2nnc(SCC(=O)Nc3ccccc3[N+](=O)[O-])o2)cc1`, the TGI in the assay on DMS 273 small cell lung, with KM20L2 colon, in the assay with SF-539 CNS, in the assay with HL-60(TB) leukemia, in the assay with SN12C renal and in the assay with NCI-H23 lung was greater than 100 µM throughout. In the assay with OVCAR-5 ovarian, this molecule returned a TGI greater than 100 µM.
With `O=C1C2Cc3ccccc3CN2C(=O)N1CN1CCN(CN2C(=O)C3Cc4ccccc4CN3C2=O)CC1` (stereo unspecified), the TGI in the assay on DMS 273 small cell lung, in the assay with KM20L2 colon, in the assay on SF-539 CNS, in the assay with HL-60(TB) leukemia, in the assay on SN12C renal and in the assay on NCI-H23 lung was greater than 100 µM in each case. The molecule also showed a TGI with OVCAR-5 ovarian greater than 100 µM.
